# Results from ChEMBL document CHEMBL4507261, “Data for DCP probe A-192621” (2021).
# What was measured:
# [1] = biological target: Translocator protein (Rattus norvegicus) (UniProt P16257); experiment: BZD (peripheral) Eurofins-Cerep binding assay; parameters: ligand concentration 0.2 nM; conditions: filed as antagonist, Compound concentration 10.0 uM
# [2] = biological target: Tumor necrosis factor (Homo sapiens) (UniProt P01375); experiment: TNF-alpha (h) Eurofins-Cerep binding assay; conditions: filed as agonist, Compound concentration 10.0 uM
# [3] = biological target: Peroxisome proliferator-activated receptor gamma (Homo sapiens) (UniProt P37231); experiment: PPARgamma (h) Eurofins-Cerep binding assay; parameters: ligand concentration 5 nM; conditions: filed as agonist, Compound concentration 10.0 uM
# [4] = biological target: 5-hydroxytryptamine receptor 4 (Homo sapiens) (UniProt Q13639); experiment: 5-HT4 e (h) Eurofins-Cerep binding assay; parameters: ligand concentration 0.3 nM; conditions: filed as antagonist, Compound concentration 10.0 uM
# [5] = biological target: Sigma non-opioid intracellular receptor 1 (Homo sapiens) (UniProt Q99720); experiment: sigma (non-selective) (h) Eurofins-Cerep binding assay; parameters: ligand concentration 10 nM; conditions: filed as agonist, Compound concentration 10.0 uM
# Sequence of Sigma non-opioid intracellular receptor 1 (Homo sapiens) (Q99720 whole entry): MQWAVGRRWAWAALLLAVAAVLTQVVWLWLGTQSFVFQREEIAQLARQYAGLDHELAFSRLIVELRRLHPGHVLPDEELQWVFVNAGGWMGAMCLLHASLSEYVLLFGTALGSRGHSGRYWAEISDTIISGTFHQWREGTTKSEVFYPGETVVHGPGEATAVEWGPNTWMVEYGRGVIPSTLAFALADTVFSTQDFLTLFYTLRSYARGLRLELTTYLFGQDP
# [6] = biological target: Vasoactive intestinal polypeptide receptor 1 (Homo sapiens) (UniProt P32241); experiment: VPAC1 (VIP1) (h) Eurofins-Cerep binding assay; parameters: ligand concentration 0.04 nM; conditions: filed as agonist, Compound concentration 10.0 uM
# [7] = system: Tyrosine-protein kinase ABL1 (Homo sapiens), P00519 [F317L]; conditions: Compound concentration 1000.0 nM
# [8] = system: Tyrosine-protein kinase ABL1 (Homo sapiens), P00519 [T315I]; conditions: Compound concentration 1000.0 nM
# [9] = biological target: RAC-beta serine/threonine-protein kinase (Homo sapiens) (UniProt P31751); conditions: Compound concentration 1000.0 nM
# [10] = biological target: Serine/threonine-protein kinase BRSK2 (Homo sapiens) (UniProt Q8IWQ3); conditions: Compound concentration 1000.0 nM
# [11] = biological target: Cyclin-dependent kinase 19 (Homo sapiens) (UniProt Q9BWU1); conditions: Compound concentration 1000.0 nM
# Sequence of Cyclin-dependent kinase 19 (Homo sapiens) (Q9BWU1 whole entry): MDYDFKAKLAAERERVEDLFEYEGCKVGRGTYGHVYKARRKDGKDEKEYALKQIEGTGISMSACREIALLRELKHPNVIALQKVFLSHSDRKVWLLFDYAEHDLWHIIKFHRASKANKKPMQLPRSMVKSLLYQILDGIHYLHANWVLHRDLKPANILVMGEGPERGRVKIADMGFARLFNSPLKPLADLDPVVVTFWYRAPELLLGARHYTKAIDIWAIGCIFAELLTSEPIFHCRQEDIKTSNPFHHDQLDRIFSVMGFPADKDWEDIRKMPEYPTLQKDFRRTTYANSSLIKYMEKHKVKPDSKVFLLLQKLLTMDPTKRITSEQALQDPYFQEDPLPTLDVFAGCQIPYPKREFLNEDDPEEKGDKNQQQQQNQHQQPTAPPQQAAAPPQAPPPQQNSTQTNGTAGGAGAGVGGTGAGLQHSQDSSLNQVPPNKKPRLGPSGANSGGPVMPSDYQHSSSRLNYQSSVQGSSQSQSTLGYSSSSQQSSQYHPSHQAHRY
# [12] = biological target: Cyclin-dependent kinase 9 (Homo sapiens) (UniProt P50750); conditions: Compound concentration 1000.0 nM
# [13] = biological target: Casein kinase I isoform delta (Homo sapiens) (UniProt P48730); conditions: Compound concentration 1000.0 nM
# [14] = biological target: Casein kinase I isoform gamma-3 (Homo sapiens) (UniProt Q9Y6M4); conditions: Compound concentration 1000.0 nM
# Sequence of Casein kinase I isoform gamma-3 (Homo sapiens) (Q9Y6M4 whole entry, looked up, canonical isoform): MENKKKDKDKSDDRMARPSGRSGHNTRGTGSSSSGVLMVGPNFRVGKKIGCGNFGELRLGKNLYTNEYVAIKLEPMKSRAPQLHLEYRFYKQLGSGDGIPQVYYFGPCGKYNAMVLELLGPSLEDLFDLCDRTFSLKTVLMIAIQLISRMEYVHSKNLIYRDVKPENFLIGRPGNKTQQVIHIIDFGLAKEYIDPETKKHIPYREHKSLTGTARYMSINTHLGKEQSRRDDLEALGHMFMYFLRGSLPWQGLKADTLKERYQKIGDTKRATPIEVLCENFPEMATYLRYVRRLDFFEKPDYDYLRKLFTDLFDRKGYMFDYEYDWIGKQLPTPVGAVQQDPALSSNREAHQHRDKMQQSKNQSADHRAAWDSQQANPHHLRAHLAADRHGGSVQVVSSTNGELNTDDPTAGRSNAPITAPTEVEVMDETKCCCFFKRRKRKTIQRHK
# [15] = system: Epidermal growth factor receptor (Homo sapiens), P00533 [L858R]; conditions: Compound concentration 1000.0 nM
# [16] = biological target: Fibroblast growth factor receptor 2 (Homo sapiens) (UniProt P21802); conditions: Compound concentration 1000.0 nM
# [17] = biological target: Receptor-type tyrosine-protein kinase FLT3 (Homo sapiens) (UniProt P36888); conditions: Compound concentration 1000.0 nM
# [18] = biological target: G protein-coupled receptor kinase 3 (Homo sapiens) (UniProt P35626); conditions: Compound concentration 1000.0 nM
# [19] = biological target: Inhibitor of nuclear factor kappa-B kinase subunit beta (Homo sapiens) (UniProt O14920); conditions: Compound concentration 1000.0 nM
# [20] = system: Mast/stem cell growth factor receptor Kit (Homo sapiens), P10721 [L576P]; conditions: Compound concentration 1000.0 nM
# [21] = system: Mast/stem cell growth factor receptor Kit (Homo sapiens), P10721 [V559D,T670I]; conditions: Compound concentration 1000.0 nM
# [22] = biological target: LIM domain kinase 1 (Homo sapiens) (UniProt P53667); conditions: Compound concentration 1000.0 nM
# [23] = biological target: Leukocyte tyrosine kinase receptor (Homo sapiens) (UniProt P29376); conditions: Compound concentration 1000.0 nM
# Sequence of Leukocyte tyrosine kinase receptor (Homo sapiens) (P29376 whole entry): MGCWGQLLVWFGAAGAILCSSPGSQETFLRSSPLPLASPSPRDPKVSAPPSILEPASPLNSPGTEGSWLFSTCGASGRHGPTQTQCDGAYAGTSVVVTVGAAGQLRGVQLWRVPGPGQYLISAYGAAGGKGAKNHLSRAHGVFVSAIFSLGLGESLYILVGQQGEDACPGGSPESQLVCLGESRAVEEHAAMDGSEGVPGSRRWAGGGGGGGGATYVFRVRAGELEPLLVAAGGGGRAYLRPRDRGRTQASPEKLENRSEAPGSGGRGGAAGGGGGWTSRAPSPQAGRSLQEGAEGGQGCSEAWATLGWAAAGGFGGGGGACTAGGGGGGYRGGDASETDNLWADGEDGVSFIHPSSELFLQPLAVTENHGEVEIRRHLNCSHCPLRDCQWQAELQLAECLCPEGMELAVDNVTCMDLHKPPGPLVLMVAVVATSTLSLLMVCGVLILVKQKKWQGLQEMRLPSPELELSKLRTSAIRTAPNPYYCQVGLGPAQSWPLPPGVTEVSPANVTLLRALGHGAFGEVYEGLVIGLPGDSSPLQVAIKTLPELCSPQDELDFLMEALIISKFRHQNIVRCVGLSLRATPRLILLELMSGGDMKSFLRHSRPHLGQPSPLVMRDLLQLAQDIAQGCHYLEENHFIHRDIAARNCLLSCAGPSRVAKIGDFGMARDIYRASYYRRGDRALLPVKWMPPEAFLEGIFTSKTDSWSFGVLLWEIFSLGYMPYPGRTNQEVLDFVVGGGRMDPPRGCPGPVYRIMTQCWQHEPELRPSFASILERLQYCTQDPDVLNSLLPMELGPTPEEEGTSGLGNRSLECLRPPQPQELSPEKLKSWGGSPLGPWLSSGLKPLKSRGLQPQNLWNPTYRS
# [24] = biological target: Mitogen-activated protein kinase kinase kinase 13 (Homo sapiens) (UniProt O43283); conditions: Compound concentration 1000.0 nM
# [25] = biological target: Mitogen-activated protein kinase kinase kinase kinase 3 (Homo sapiens) (UniProt Q8IVH8); conditions: Compound concentration 1000.0 nM
# [26] = biological target: Maternal embryonic leucine zipper kinase (Homo sapiens) (UniProt Q14680); conditions: Compound concentration 1000.0 nM
# Sequence of Maternal embryonic leucine zipper kinase (Homo sapiens) (Q14680 whole entry, looked up): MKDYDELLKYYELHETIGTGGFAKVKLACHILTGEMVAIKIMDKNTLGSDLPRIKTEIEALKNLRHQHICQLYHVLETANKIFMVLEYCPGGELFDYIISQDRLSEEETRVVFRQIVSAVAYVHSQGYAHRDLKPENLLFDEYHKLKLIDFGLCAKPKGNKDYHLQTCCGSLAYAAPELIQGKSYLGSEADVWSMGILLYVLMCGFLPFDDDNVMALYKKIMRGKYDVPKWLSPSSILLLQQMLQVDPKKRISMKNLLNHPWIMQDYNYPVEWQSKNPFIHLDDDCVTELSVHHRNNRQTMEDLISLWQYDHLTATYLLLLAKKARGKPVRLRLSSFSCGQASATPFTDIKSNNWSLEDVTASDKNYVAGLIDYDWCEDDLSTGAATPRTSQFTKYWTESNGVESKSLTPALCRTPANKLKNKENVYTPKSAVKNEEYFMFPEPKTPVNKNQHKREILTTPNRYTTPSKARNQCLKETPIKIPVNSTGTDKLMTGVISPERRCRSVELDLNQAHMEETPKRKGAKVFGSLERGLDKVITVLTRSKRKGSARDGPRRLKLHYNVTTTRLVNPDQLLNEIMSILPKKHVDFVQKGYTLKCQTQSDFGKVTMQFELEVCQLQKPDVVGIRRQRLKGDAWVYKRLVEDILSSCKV
# [27] = biological target: Tyrosine-protein kinase Mer (Homo sapiens) (UniProt Q12866); conditions: Compound concentration 1000.0 nM
# [28] = biological target: Mitogen-activated protein kinase kinase kinase 9 (Homo sapiens) (UniProt P80192); conditions: Compound concentration 1000.0 nM
# [29] = biological target: Mitogen-activated protein kinase kinase kinase 10 (Homo sapiens) (UniProt Q02779); conditions: Compound concentration 1000.0 nM
# Sequence of Mitogen-activated protein kinase kinase kinase 10 (Homo sapiens) (Q02779 whole entry, looked up): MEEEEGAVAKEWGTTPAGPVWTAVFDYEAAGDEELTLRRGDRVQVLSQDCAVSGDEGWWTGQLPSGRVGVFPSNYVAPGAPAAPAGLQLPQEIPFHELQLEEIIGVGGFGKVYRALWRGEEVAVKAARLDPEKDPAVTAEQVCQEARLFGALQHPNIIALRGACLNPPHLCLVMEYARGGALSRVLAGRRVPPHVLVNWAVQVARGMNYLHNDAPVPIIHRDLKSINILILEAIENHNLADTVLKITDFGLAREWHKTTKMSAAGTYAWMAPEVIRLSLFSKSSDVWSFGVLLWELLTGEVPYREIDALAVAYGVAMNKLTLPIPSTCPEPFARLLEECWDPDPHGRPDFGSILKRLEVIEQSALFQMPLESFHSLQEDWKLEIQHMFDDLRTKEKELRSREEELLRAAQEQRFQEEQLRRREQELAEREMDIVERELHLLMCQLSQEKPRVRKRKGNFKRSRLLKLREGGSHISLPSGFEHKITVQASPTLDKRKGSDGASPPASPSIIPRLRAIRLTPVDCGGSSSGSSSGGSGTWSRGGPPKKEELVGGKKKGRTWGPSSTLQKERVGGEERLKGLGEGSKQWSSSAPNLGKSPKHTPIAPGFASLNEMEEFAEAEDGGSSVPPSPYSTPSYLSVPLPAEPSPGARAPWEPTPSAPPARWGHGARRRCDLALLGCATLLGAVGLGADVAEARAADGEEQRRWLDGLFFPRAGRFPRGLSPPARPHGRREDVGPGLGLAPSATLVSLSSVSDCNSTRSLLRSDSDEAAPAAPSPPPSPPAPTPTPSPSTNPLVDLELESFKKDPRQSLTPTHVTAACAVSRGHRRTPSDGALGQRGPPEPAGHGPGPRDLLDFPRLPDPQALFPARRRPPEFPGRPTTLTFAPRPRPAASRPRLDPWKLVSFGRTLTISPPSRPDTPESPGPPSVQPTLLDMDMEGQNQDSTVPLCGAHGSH
# [30] = biological target: Serine/threonine-protein kinase MRCK beta (Homo sapiens) (UniProt Q9Y5S2); conditions: Compound concentration 1000.0 nM
# [31] = biological target: Serine/threonine-protein kinase 4 (Homo sapiens) (UniProt Q13043); conditions: Compound concentration 1000.0 nM
# [32] = biological target: Cyclin-dependent kinase 14 (Homo sapiens) (UniProt O94921); conditions: Compound concentration 1000.0 nM
# [33] = system: Phosphatidylinositol 4,5-bisphosphate 3-kinase catalytic subunit alpha isoform (Homo sapiens), P42336 [H1047L]; conditions: Compound concentration 1000.0 nM
# [34] = biological target: Phosphatidylinositol 4-kinase beta (Homo sapiens) (UniProt Q9UBF8); conditions: Compound concentration 1000.0 nM
# [35] = biological target: 1-phosphatidylinositol 3-phosphate 5-kinase (Homo sapiens) (UniProt Q9Y2I7); conditions: Compound concentration 1000.0 nM
# [36] = biological target: Protein kinase C eta type (Homo sapiens) (UniProt P24723); conditions: Compound concentration 1000.0 nM
# [37] = biological target: Serine/threonine-protein kinase D3 (Homo sapiens) (UniProt O94806); conditions: Compound concentration 1000.0 nM
# [38] = biological target: Receptor-interacting serine/threonine-protein kinase 4 (Homo sapiens) (UniProt P57078); conditions: Compound concentration 1000.0 nM
# [39] = biological target: Proto-oncogene tyrosine-protein kinase Src (Homo sapiens) (UniProt P12931); conditions: Compound concentration 1000.0 nM
# Sequence of Proto-oncogene tyrosine-protein kinase Src (Homo sapiens) (P12931 2-536 limits assumed): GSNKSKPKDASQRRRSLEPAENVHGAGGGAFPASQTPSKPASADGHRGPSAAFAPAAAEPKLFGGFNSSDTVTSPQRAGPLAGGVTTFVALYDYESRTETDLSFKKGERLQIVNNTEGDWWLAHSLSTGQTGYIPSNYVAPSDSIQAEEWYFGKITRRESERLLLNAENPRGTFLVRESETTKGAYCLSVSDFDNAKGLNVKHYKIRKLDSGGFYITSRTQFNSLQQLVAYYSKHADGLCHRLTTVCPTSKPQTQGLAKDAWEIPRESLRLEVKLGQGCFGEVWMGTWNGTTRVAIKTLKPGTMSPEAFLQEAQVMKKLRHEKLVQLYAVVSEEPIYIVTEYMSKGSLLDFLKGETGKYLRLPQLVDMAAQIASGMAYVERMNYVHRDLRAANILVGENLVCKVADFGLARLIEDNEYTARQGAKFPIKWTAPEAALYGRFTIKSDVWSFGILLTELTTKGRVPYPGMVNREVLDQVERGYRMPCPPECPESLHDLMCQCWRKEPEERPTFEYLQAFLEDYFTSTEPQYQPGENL
# [40] = biological target: SRSF protein kinase 3 (Homo sapiens) (UniProt Q9UPE1); conditions: Compound concentration 1000.0 nM
# Sequence of SRSF protein kinase 3 (Homo sapiens) (Q9UPE1 whole entry): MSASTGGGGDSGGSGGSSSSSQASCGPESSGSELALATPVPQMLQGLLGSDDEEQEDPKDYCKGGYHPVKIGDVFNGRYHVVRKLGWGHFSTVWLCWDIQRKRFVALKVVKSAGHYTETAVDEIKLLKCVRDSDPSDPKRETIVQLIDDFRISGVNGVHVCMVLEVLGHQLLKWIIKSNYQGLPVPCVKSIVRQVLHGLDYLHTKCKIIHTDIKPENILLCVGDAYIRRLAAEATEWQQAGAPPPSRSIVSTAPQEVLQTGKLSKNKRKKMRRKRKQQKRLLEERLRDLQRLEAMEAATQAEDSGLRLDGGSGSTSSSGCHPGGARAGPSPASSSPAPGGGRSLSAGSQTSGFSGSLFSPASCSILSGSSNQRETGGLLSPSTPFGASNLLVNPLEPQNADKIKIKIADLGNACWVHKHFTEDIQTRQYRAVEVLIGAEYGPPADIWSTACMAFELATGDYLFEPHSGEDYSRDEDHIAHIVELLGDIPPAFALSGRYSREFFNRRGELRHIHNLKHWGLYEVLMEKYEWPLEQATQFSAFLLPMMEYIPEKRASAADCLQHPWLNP
# [41] = biological target: Serine/threonine-protein kinase 16 (Homo sapiens) (UniProt O75716); conditions: Compound concentration 1000.0 nM
# [42] = biological target: Serine/threonine-protein kinase TAO2 (Homo sapiens) (UniProt Q9UL54); conditions: Compound concentration 1000.0 nM
# [43] = biological target: Serine/threonine-protein kinase tousled-like 1 (Homo sapiens) (UniProt Q9UKI8); conditions: Compound concentration 1000.0 nM
# [44] = biological target: Serine/threonine-protein kinase 32A (Homo sapiens) (UniProt Q8WU08); conditions: Compound concentration 1000.0 nM
# [45] = biological target: Serine/threonine-protein kinase 32B (Homo sapiens) (UniProt Q9NY57); conditions: Compound concentration 1000.0 nM
# Sequence of Translocator protein (Rattus norvegicus) (P16257 whole entry, looked up): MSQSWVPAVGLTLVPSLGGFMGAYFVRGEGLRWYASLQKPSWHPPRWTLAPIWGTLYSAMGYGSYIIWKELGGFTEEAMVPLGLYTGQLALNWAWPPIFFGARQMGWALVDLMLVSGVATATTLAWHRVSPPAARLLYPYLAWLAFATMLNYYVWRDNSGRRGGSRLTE
compound,measurement,setting,value
CCCOc1ccc([C@H]2[C@H](C(=O)O)[C@@H](c3ccc4c(c3)OCO4)CN2CC(=O)Nc2c(CC)cccc2CC)cc1 [A-192621],% Inhibition of Control Specific Binding (Mean n=2),[1],72.1%
same,% Inhibition of Control Specific Binding (Mean n=2),[2],3.4%
same,% Inhibition of Control Specific Binding (Mean n=2),[3],40.3%
same,% Inhibition of Control Specific Binding (Mean n=2),[4],-12.4%
same,% Inhibition of Control Specific Binding (Mean n=2),[5],39.3%
same,% Inhibition of Control Specific Binding (Mean n=2),[6],-7.7%
same,residual activity,[7],62%
same,residual activity,[8],77%
same,residual activity,[9],100%
same,residual activity,[10],97%
same,residual activity,[11],95%
same,residual activity,[12],88%
same,residual activity,[13],80%
same,residual activity,[14],100%
same,residual activity,[15],100%
same,residual activity,[16],100%
same,residual activity,[17],80%
same,residual activity,[18],73%
same,residual activity,[19],77%
same,residual activity,[20],90%
same,residual activity,[21],87%
same,residual activity,[22],100%
same,residual activity,[23],100%
same,residual activity,[24],47%
same,residual activity,[25],85%
same,residual activity,[26],65%
same,residual activity,[27],87%
same,residual activity,[28],93%
same,residual activity,[29],100%
same,residual activity,[30],87%
same,residual activity,[31],99%
same,residual activity,[32],100%
same,residual activity,[33],85%
same,residual activity,[34],75%
same,residual activity,[35],86%
same,residual activity,[36],100%
same,residual activity,[37],93%
same,residual activity,[38],69%
same,residual activity,[39],99%
same,residual activity,[40],100%
same,residual activity,[41],72%
same,residual activity,[42],74%
same,residual activity,[43],74%
same,residual activity,[44],93%
same,residual activity,[45],100%
CCCOc1ccc([C@@H]2[C@@H](C(=O)O)[C@H](c3ccc4c(c3)OCO4)CN2CC(=O)Nc2c(CC)cccc2CC)cc1 [A-1806262],% Inhibition of Control Specific Binding (Mean n=2),[1],54.7%
same,% Inhibition of Control Specific Binding (Mean n=2),[2],1.2%
same,% Inhibition of Control Specific Binding (Mean n=2),[3],67%
same,% Inhibition of Control Specific Binding (Mean n=2),[4],-13.4%
same,% Inhibition of Control Specific Binding (Mean n=2),[5],-9.7%
same,% Inhibition of Control Specific Binding (Mean n=2),[6],-1.5%
same,residual activity,[7],82%
same,residual activity,[8],82%
same,residual activity,[9],100%
same,residual activity,[10],100%
same,residual activity,[11],89%
same,residual activity,[12],87%
same,residual activity,[13],83%
same,residual activity,[14],100%
same,residual activity,[15],87%
same,residual activity,[16],100%
same,residual activity,[17],71%
same,residual activity,[18],100%
same,residual activity,[19],94%
same,residual activity,[20],100%
same,residual activity,[21],100%
same,residual activity,[22],90%
same,residual activity,[23],100%
same,residual activity,[24],75%
same,residual activity,[25],100%
same,residual activity,[26],84%
same,residual activity,[27],97%
same,residual activity,[28],93%
same,residual activity,[29],100%
same,residual activity,[30],97%
same,residual activity,[31],95%
same,residual activity,[32],92%
same,residual activity,[33],83%
same,residual activity,[34],100%
same,residual activity,[35],91%
same,residual activity,[36],100%
same,residual activity,[37],86%
same,residual activity,[38],100%
same,residual activity,[39],100%
same,residual activity,[40],93%
same,residual activity,[41],87%
same,residual activity,[42],91%
same,residual activity,[43],77%
same,residual activity,[44],85%
same,residual activity,[45],100%
